Assay results reported in patent US20130225545A1, “PORPHYRIN TREATMENT OF NEURODEGENERATIVE DISEASES” (priority 2010, published 2013).
Entries after “also recorded” stand apart in the source; their conditions may differ.

Tests used:
MPTP metabolism = assay: Striatal MPP+ levels 3 h after MPTP (effects on MPTP metabolism); type: in vivo, mice; details: 15 mg/kg i.p. 1 h before MPTP (15 mg/kg s.c.)
From the text: Bars represent mean+S.E.M. n=4-6 mice per group.

[1] = Plasma concentration in C57BL/6 mice after a single dose (15 mg/kg) by the i.p. or p.o. route; type: in vivo; details: for plasma concentration after i.p. administration / plasma concentration after p.o. administration: C57BL/6 mice; for plasma concentration after i.p. administration: single dose 15 mg/kg i.p.; for bioavailability / pharmacokinetic properties, overall assessment: mice, i.p. and p.o., summary in words; for plasma concentration after p.o. administration: single dose 15 mg/kg p.o.
From the text: (§1) Points represent mean±S.E.M. Each point is the average of 3-4 animals.
(§2) Points represent mean+S.E.M. Bars represent mean+S.E.M. n=3-6 mice per group. […] Bars represent mean+S.E.M. n=3-6 mice per group. […] Bars represent mean+S.E.M. #p<0.01 vs MPTP. One-way, ANOVA, n=6 mice per group.
(§3) Points represent mean±S.E.M. Each point is the average of 3-4 animals. […] Bars represent mean+S.E.M. n=6-8 mice per group. […] Bars represent mean+S.E.M. #p<0.01 vs MPTP. One-way, ANOVA, n=6 mice per group.
(§4) Points represent mean+S.E.M. Each point is the average of 4 animals. […] Bars represent mean+S.E.M. n=6 mice per group. […] Bars represent mean+S.E.M. #p<0.01 vs MPTP. One-way, ANOVA, n=6 mice per group.
Points represent mean+S.E.M. Each point is the average of 4 animals.

MPTP mouse model [2] = assay: Dopamine levels in the striata 7 days after injection of MPTP; type: in vivo, C57BL/6 mice; details: for protection against MPTP-induced striatal dopamine depletion: 1 hr prior to MPTP and daily thereafter, MPTP 15 mg/kg x3 s.c., 7 days
From the text: as §2, §3, §4

MPTP mouse model [3] = assay: GSH, GSSG, GSH/GSSG and 3NT/Tyr ratios in ventral midbrain/SN 24 hours after MPTP; type: in vivo, C57/B6 mice; details: for protection against MPTP-induced alteration of 3-NT/tyrosine ratio / protection against MPTP-induced alteration of GSH/GSSG: 24 hours after MPTP
From the text: as §2, §3, §4

[4] = Solubility of the compound for dosing; type: physicochemical; details: result in words
MPTP mouse model [5] = assay: Stereological count of TH+ neurons in the substantia nigra pars compacta 7 days after MPTP; type: in vivo, C57BL/6 mice; details: MPTP 15 mg/kg x3 s.c.
Procedure: as §2
Assessment of tyrosine hydroxylase (TH) neurons: Free-floating […] mesencephalic serial sections will be processed with antibodies against TH for immunohistochemistry (Vector Laboratories) and counterstained with cresyl violet. Total numbers of TH and cresyl violet-stained neurons in SNpc is counted stereologically with STEREO INVESTIGATOR software.
Stereological analysis and TH immunohistochemistry: The 40-μm sections including the whole SN pars compacta (SNpc) from bregma −2.60 to −3.80 mm is immunostained with a rabbit antibody to TH (Chemicon, Temecula, Calif.) using the ABC method (ABC Elite Kit, Vector Laboratories, Burlingame, Calif.). The number of TH-positive neurons is quantified using stereo investigator software (MicroBrightfield, Williston, Vt.) by a previously described method (West, Trends in Neurosciences 22:51-61, 1999; Liang et al., J Neurosci 27:4326-4333, 2007).
Bars represent mean+S.E.M. n=6.

[6] = Brain concentration in C57BL/6 mice after a single dose (15 mg/kg) by the i.p. or p.o. route; type: in vivo; details: for penetration of the BBB: 15 mg/kg, i.p. (AEOL11216), i.p. and p.o. (AEOL11203, AEOL1114); for concentration in the brain, stable for 24 hr after i.p. administration / concentration in the brain for 24 hr after p.o. administration / concentration in the brain after i.p. administration / concentration in the brain after p.o. administration: C57BL/6 mice; for concentration in the brain, stable for 24 hr after i.p. administration / concentration in the brain after i.p. administration: single dose 15 mg/kg i.p.; for concentration in the brain for 24 hr after p.o. administration / concentration in the brain after p.o. administration: single dose 15 mg/kg p.o.; for concentration in the brain after i.p. administration / concentration in the brain after p.o. administration: result in words
From the text: as §1, §2, §3, §4

mice [7] = assay: Accelerating rotarod test after 7 days of dosing; details: 15 mg/kg i.p. daily for 7 days; 3-4 h after last injection
Procedure: (§5) FIG. 15. The histograms of FIGS. 15A-15C appear in the order (left to right): control; MnCl2; AEOL 11114; AEOL 11207; AEOL 11203. Behavioral testing after dosing mice with AEOL11207, AEOL11114B or AEOL11203 (MnCl2 positive control). Mice (6 per group) were divided 5 groups treated with AEOL11207, AEOL11203, AEOL11114B, MnCl2 (all compound dissolved in 5% DMSO) or 5% DMSO alone by 15 mg/kg i.p. daily for a period of 7 days. At the end of treatment, mice were performed the behavioral tests by open field and accelerating rotorod test in 3-4 h after last injection. The total moving distance (FIG. 15A), moving velocity (FIG. 15B) in 5 minutes measured by open field test and the latency (seconds) from acceleration to fall from the rod (FIG. 15C) in the mice 7 days after injection of vehicle, MnCl2, AEOL11114, AEOL11207 and AEOL11203 i.p. (15 mg/kg daily). Bars represent mean+S.E.M. One-way, ANOVA, n=6-8 mice per group.
Motor behavior assessment by accelerating rotarod test follows the protocol of Hamm et al. (Ferret et al., Hepatology 33:1173-1180, 2001). Rotarod test is performed by using an automated rotarod (Ugo Basile, Comerio, Italy) after AEOLs or vehicle injections. Animals are tested two consecutive daily trials (1 hour apart) with an accelerating mode (15, 20, 25, 30, 35 and 40 rpm) in 240 seconds for total 5 days. The average latency to fall from the rod will be recorded. […]

mice [8] = assay: Open field test after 7 days of dosing; details: 15 mg/kg i.p. daily for 7 days; 3-4 h after last injection
Procedure: as §5
Open field test: The test is performed in mice treated with AEOL compounds or vehicle. The assessment is conducted over 2-4 days in a square arena mounted within specially designed sound-proof plexiglass shells. Each day a mouse is placed in the center of the open field arena and allowed to freely move about for 20-60 minutes while being tracked by an automated tracking system. […]

COC(=O)c1ccc(C2=C3C=CC(=N3)C(C(F)(F)F)=c3ccc4[n]3[Mn+][n]3c2ccc3C(C(F)(F)F)=C2C=CC(=N2)C=4c2ccc(C(=O)OC)cc2)cc1 [AEOL1114]
effect on striatal MPP+ levels (MPTP metabolism): none of the AEOL compounds tested altered the levels of MPP+
plasma concentration after i.p. administration [1]: ~20000 nM
bioavailability / pharmacokinetic properties, overall assessment [1]: good pharmacokinetic properties, brain penetration, oral bioavailability
protection against MPTP-induced striatal dopamine depletion (MPTP mouse model [2]; 15 mg/kg i.p.): statistically significant protection
protection against MPTP-induced striatal dopamine depletion (MPTP mouse model [2]; 15 mg/kg p.o.): statistically significant protection
protection against MPTP-induced alteration of 3-NT/tyrosine ratio (MPTP mouse model [3]; 15 mg/kg x3 daily i.p.): significantly protected
protection against MPTP-induced alteration of GSH/GSSG (MPTP mouse model [3]; 15 mg/kg x3 daily i.p.): significantly protected
protection against MPTP-induced alteration of 3-NT/tyrosine ratio (MPTP mouse model [3]; 15 mg/kg x3 daily p.o.): significantly protected
protection against MPTP-induced alteration of GSH/GSSG (MPTP mouse model [3]; 15 mg/kg x3 daily p.o.): significantly protected
efficacy against MPTP-induced oxidative stress, overall assessment (MPTP mouse model [3]; summary in words): efficacy against MPTP-induced oxidative stress
solubility [4]: favorable solubility properties
protection against MPTP-induced dopaminergic (TH+) neuronal loss in the substantia nigra pars compacta (MPTP mouse model [5]; 15 mg/kg i.p.): prevents MPTP-induced loss of TH+ dopamine neurons
protection against MPTP-induced dopaminergic (TH+) neuronal loss in the substantia nigra pars compacta (MPTP mouse model [5]; 15 mg/kg p.o.): prevents MPTP-induced loss of TH+ dopamine neurons
penetration of the BBB [6]: penetrated the BBB
concentration in the brain, stable for 24 hr after i.p. administration [6]: > 200 nM
concentration in the brain for 24 hr after p.o. administration [6]: > 200 nM

COC(=O)C1=C2C=CC(=N2)C(C(=O)OC)=c2ccc3[n]2[Mn+][n]2c1ccc2C(C(=O)OC)=C1C=CC(=N1)C=3C(=O)OC [AEOL11203]
effect on striatal MPP+ levels (MPTP metabolism): none of the AEOL compounds tested altered the levels of MPP+
plasma concentration after i.p. administration ([1]; result in words): relative high
plasma concentration after p.o. administration [1]: ~5000 nM
protection against MPTP-induced striatal dopamine depletion (MPTP mouse model [2]; 15 mg/kg i.p.): statistically significant protection
efficacy in the MPTP mouse model, overall assessment (MPTP mouse model [2]; summary in words): promising efficacy
protection against MPTP-induced alteration of 3-NT/tyrosine ratio (MPTP mouse model [3]; 15 mg/kg x3 daily i.p.): significantly protected
protection against MPTP-induced alteration of GSH/GSSG (MPTP mouse model [3]; 15 mg/kg x3 daily i.p.): significantly protected
solubility [4]: good
penetration of the BBB [6]: penetrated the BBB
concentration in the brain, stable for 24 hr after i.p. administration [6]: > 100 nM
concentration in the brain after i.p. administration [6]: good brain bioavailability
concentration in the brain for 24 hr after p.o. administration [6]: ~50 nM
concentration in the brain after p.o. administration [6]: good brain bioavailability

COC(=O)c1c2nc(c(C(F)(F)F)c3ccc([n-]3)c(C(=O)OC)c3nc(c(C(F)(F)F)c4ccc1[n-]4)C=C3)C=C2.[Cl-].[Mn+3] [AEOL11207]
effect on striatal MPP+ levels (MPTP metabolism): none of the AEOL compounds tested altered the levels of MPP+

COC(=O)c1ccc(C2=C3C=CC(=N3)C(C=O)=c3ccc4[n]3[Mn+][n]3c(ccc32)C(C=O)=C2C=CC(=N2)C=4c2ccc(C(=O)OC)cc2)cc1 [AEOL11209]
plasma concentration after i.p. administration ([1]; result in words): low but achievable
bioavailability / pharmacokinetic properties, overall assessment [1]: unfavorable pharmacokinetic or oral bioavailability; also recorded: poor bioavailability
solubility [4]: a major issue; also recorded: solubility issues
concentration in the brain after i.p. administration [6]: variable and relatively low
concentration in the brain after p.o. administration [6]: variable and relatively low

CCCOC(=O)C1=C2C=CC(=N2)C(C(=O)OCCC)=c2ccc3[n]2[Mn][n]2c1ccc2C(C(=O)OCCC)=C1C=CC(=N1)C=3C(=O)OCCC [AEOL11215]
plasma concentration after i.p. administration ([1]; result in words): moderate levels
plasma concentration after p.o. administration ([1]; result in words): not reliably detected
bioavailability / pharmacokinetic properties, overall assessment [1]: poor bioavailability; also recorded: unfavorable pharmacokinetic or oral bioavailability
concentration in the brain after i.p. administration [6]: not reliably detectable

CCCOC(=O)C1=C2C=CC(=N2)C(C(F)(F)F)=c2ccc3[n]2[Mn][n]2c1ccc2C(C(F)(F)F)=C1C=CC(=N1)C=3C(=O)OCCC [AEOL11216]
plasma concentration after i.p. administration ([1]; result in words): high plasma concentrations
protection against MPTP-induced striatal dopamine depletion (MPTP mouse model [2]; 15 mg/kg i.p.): did not significantly prevent
protection against MPTP-induced alteration of 3-NT/tyrosine ratio (MPTP mouse model [3]; 15 mg/kg x3 daily i.p.): significantly protected
protection against MPTP-induced alteration of GSH/GSSG (MPTP mouse model [3]; 15 mg/kg x3 daily i.p.): significantly protected
protection against MPTP-induced dopaminergic (TH+) neuronal loss in the substantia nigra pars compacta (MPTP mouse model [5]; 15 mg/kg i.p.): significantly protected
penetration of the BBB [6]: penetrated the BBB
concentration in the brain, stable for 24 hr after i.p. administration [6]: more than 100 nM

FC(F)(F)C1=C2C=CC(=N2)C(C(F)(F)F)=c2ccc3[n]2[Mn+][n]2c1ccc2C(C(F)(F)F)=C1C=CC(=N1)C=3C(F)(F)F [AEOL11256]
effect on striatal MPP+ levels (MPTP metabolism): none of the AEOL compounds tested altered the levels of MPP+
plasma concentration after i.p. administration ([1]; result in words): relatively low
plasma concentration after p.o. administration ([1]; result in words): relatively low
solubility [4]: a major issue
concentration in the brain after i.p. administration [6]: undetectable
concentration in the brain after p.o. administration [6]: undetectable

[Cl][Mn][Cl] [MnCl2]
accelerating rotorod test (latency to fall) versus other groups (mice [7]): no statistically significant differences
open field test (total moving distance, moving velocity) versus other groups (mice [8]): no statistically significant differences
